Assay results: publication PMC9945177, “Nature-Derived Epoxy Resin Monomers with Reduced Sensitizing Capacity—Isosorbide-Based Bis-Epoxides” (Chemical Research in Toxicology, 2023)
Read-outs that look alike come from different tables or passages of the source. Blank lines part the entries; values can stand above or below the compound they belong to.

Experiments:
[1] = test system: Female CBA/Ca mice; experiment: murine local lymph node assay (LLNA); assay type: in vivo
Protocol: Female CBA/Ca mice, 7 to 9 weeks of age, were purchased from NOVA SCB Charles River, Germany. The mice were housed in HEPA-filtered air flow cages and kept on standard laboratory diet and water ad lib. The regional ethics committee, Jordbruksverket, approved the protocol and the procedure was performed in accordance with the guidelines.
A previously published protocol[24] of the LLNA[34] was used to assess the sensitization potential of the isosorbide bis-epoxides 1–3. The purity of the assessed isosorbide bis-epoxides was >99% (GC/MS or LC/MS) before testing of sensitization potential. The isosorbide bis-epoxides were tested in five different concentrations; 1: 3.9 mM (0.10% w/v), 39 mM (1.0% w/v), 190 mM (5.0% w/v), 390 mM (10% w/v), and 770 mM (20% w/v); 2: 21 mM (1.0% w/v), 54 mM (2.5% w/v), 110 mM (5.0% w/v), 210 mM (10% w/v), and 540 mM (25% w/v); and 3: 2.3 mM (0.10% w/v), 23 mM (1.0% w/v), 110 mM (5.0% w/v), 230 mM (10% w/v), and 460 mM (20% w/v). A detailed description is given in Supporting Information.
The three isosorbide bis-epoxides were evaluated for sensitization potential in vivo with the murine LLNA (Figure 2). The stimulation index (SI) is defined as the ratio between the dpm/lymph node for the test group and the control group. Test materials that at one or more concentrations cause an SI greater than 3 are considered positive in the LLNA. The estimated concentration required to induce an SI of 3 (EC3) is used to determine the sensitizing potency of the test compound. […] Isosorbide bis-epoxide 1 gave an EC3 value of 0.17 M (4.4%), 3 gave an EC3 value of 0.36 M (16%), and no EC3 value was obtained for 2 (for full results, see the Supporting Information, Table S1).
A previously published protocol1 of the LLNA2 was used to assess the sensitization potential of the isosorbide bis-epoxides 1-3. The purity of the assessed isosorbide bis-epoxides was >98% according to LC/MS analysis. The isosorbide bis-epoxides were tested in five different concentrations; 1: 3.87 mM […]
456 mM (20% w/v). Briefly, mice in groups of three received 25 µL of test compound dissolved in the vehicle acetone/olive oil (4:1 v/v), on the dorsum of the ears for three consecutive days (day 0, 1, and 2). A sixth group of four mice was treated with vehicle only (control group). On day 5, all mice were injected intravenously via the tail vein with 250 µL of phosphate buffered saline (PBS) (pH 7.4, 137 mM NaCl, 2.7 mM KCl, and 10 mM phosphate buffer) containing 20 µCi [methyl-3H]thymidine. Five hours later the mice were sacrificed, the draining lymph nodes were excised and pooled for each group, followed by preparation of single-cell suspensions of lymph nodes in PBS by using cell strainers (Falcon; BD Labware, Franklin Lakes, NJ, USA; pore size, 70 µm). Cell suspensions were washed twice with PBS, precipitated with trichloroacetic acid (TCA) (5%), and stored at 4 °C overnight. The samples were then centrifuged, resuspended in TCA (5%, 1 mL), and transferred to scintillation cocktail (10 mL) (EcoLume INC Radiochemicals, Solon, OH, USA). The incorporation of [methyl-3H]thymidine into DNA was measured by b-scintillation counting with a Beckman LS 6000TA instrument. Results are expressed as the mean dpm/lymph node for each experimental group and as stimulation index (SI). The SI is defined as the ratio between dpm/lymph node for the test group and the control group. Test materials that at one or more concentrations cause an SI greater than 3 are considered positive in the LLNA. EC3 values (the estimated concentration required to induce an SI of 3) were calculated by linear interpolation.
Results from the Local Lymph Node Assay
Table S1: Full results from the LLNA of bis-epoxides 1-3a
Test Test [3H]thymidine SI EC value

[2] = thermogravimetric analysis (TGA) of polymers formed with TETA; assay type: physicochemical; details: polymer cured with TETA, TGA under nitrogen
Protocol: Detailed information on the polymerization procedure and the thermogravimetric analysis (TGA) is given in the Supporting Information.
Pilot experiments using TGA were conducted to investigate the properties of the polymers formed from isosorbide bis-epoxides 1–3 and the commonly used curing agent TETA (Table 2 and Figure 6). The onset of degradation is described by the initial decomposition temperature (IDT) and is an indication of the thermal stability of the cured epoxy resins. The maximum weight loss rate (Rmax) and the temperature (Tmax) at Rmax were taken from the peak values of the thermograms. The activation energies (Ea) for the decomposition of the polymers were calculated from the thermograms based on the Horowitz–Metzger equation.[43],[44]

[3] = test system: AcPHCKRM; experiment: peptide depletion with AcPHCKRM; details: peptide 1 mM, test compound 10 mM, DMSO/phosphate buffer pH 7.4 (1:1), room temperature
Protocol: Liquid chromatography-mass spectroscopy (LC-MS) analyses of peptide depletion experiments were performed using electrospray ionization (ESI) on a Hewlett-Packard 1100 HPLC/MS (Agilent Technologies, Waldbronn, Germany). The system included a vacuum degasser, a binary pump, an autoinjector, a column thermostat, a diode array detector, and a single quadrupole mass spectrometer. The high-performance liquid chromatography (HPLC) system was equipped with a HyPURITY C18 column (150 × 3 mm i.d., particle size 3 μm, Thermo Hypersil-Keystone, Thermo Electron Corp., Bellafonte, PA, USA). The mobile phase consisted of 0.005% pentafluoropropanoic acid, 0.1% acetic acid, and 5% acetonitrile in water (solvent A) and 0.005% pentafluoropropanoic acid, 0.1% acetic acid, and 50% water in acetonitrile (solvent B). […] The gradient conditions used were as follows: 0-8% B (0-3 min), 8-10% B (3-15 min), 10-100% B (15-18 min), 100% B (18-30 min), 100-0% B (30-30.1 min), 0% B (30.1-40 min). The ESI interface was used in positive ionization mode with the following spray chamber settings: nebulizer pressure, 35 psi; capillary voltage, 3000 V; drying gas temperature, 350 °C; and drying gas flow rate, 12 L/min. The fragmentor voltage was set to 120 V. The mass spectrometer was used in scan mode detecting molecular ions with m/z values ranging from 50 to 1800. All solvents were degassed with argon prior to use.

[4] = test system: Female CBA/Ca mice; details: cited from earlier work
[5] = set-up: method as in Ponting et al. 26; details: polymer, TGA under nitrogen; ref Ponting et al. 26; cited from earlier work
[6] = skin permeability, static Franz diffusion cells; assay type: in vitro ADME, pig
Protocol: For the permeability experiments, ultra-performance liquid chromatography-electrospray ionization tandem mass spectroscopy (UPLC)-ESI-MS/MS analysis was carried out using a Xevo TQ-S micro triple quadrupole mass spectrometer equipped with an electrospray interface and coupled to an Acquity UPLC H-Class Plus system from Waters. Separation was achieved on an ACE Excel C18-PFP column (75 × 2.1 mm, 1.7 μm) from Advanced Chromatography Technologies Ltd. (Aberdeen, Scotland). Mobile phase A consisted of 0.1% formic acid and 5% acetonitrile in water, whereas mobile phase B consisted of 0.1% formic acid and 5% water in acetonitrile. The gradient program used was as follows: 20% B (0–2 min), 20–80% B (2–9 min), 80–95% B (9–9.1 min), 95% B (9.1–12 min), 95–20% B (12–12.1 min), 20% B (12.1–15 min). The flow rate was set to 0.3 mL/min and the injection volume was 2 μL. Analysis was performed in positive ionization mode using a Multiple Reaction Monitoring (MRM) method. The optimal parameters were capillary voltage 1.5 (kV), desolvation temperature 650 °C, desolvation gas 850 L/h, and cone 100 L/h.
The Franz diffusion cell experiment was based on the OECD Test Guidelines.[35] Static Franz diffusion cells equipped with pig ex vivo epidermis were used to assess the permeability of isosorbide bis-epoxides 2 and 3. Freshly cut pig ears were received frozen and stored at −20 °C until used for permeability assessment. One day before the experiment, the ears were transferred at +4 °C and allowed to thaw. The ears were then washed, shaved, and carefully cut with a Watson Dermatome skin graft knife to obtain 0.1 mm pieces of the epidermis layer. The integrity of the skin (transparent and intact) was determined by ocular inspection. Thereafter, the epidermis layer was cut and positioned between the donor and receptor compartment of each Franz cell. The receptor compartments were filled with 5 mL of ethanol/PBS (1:1) and equipped with a small magnetic stir bar to ensure mixing while maintaining a constant temperature of the circulating water at 37 °C. To equilibrate the skin, the upper chamber was filled with 0.5 mL of ethanol/PBS (1:1) which was later removed and replaced with the donor solution (50 μL) containing either 2 or 3 (0.1 mg/mL) or DGEBA (0.1 mg/mL) used as a positive control. A procedural blank containing only 50 μL of ethanol/PBS (1:1) in the donor compartment was also included in the experimental setup. Samples of 100 μL were collected after 0–2 min, 1, 2, 3, 4, 5, and 6 h. At each timepoint, a sample aliquot was removed and 100 μL of ethanol/PBS (1:1) was added to the receptor compartment to keep the volume constant. After 6 h, the skin from each Franz cell was extracted overnight in 5 mL of ethanol/PBS (1,1). Triplicate experiments were performed for each compound. The obtained samples were analyzed with UPLC-ESI-MS/MS (see Figure S2 for parameters) and quantification was based on external calibration curves. The limit of quantification (LOQ) was determined by the analysis of the analyte at low concentration and was calculated as 10 times the signal-to-noise ratio.

[7] = test system: guinea pig; details: cited from earlier work
[8] = estimated concentration required to induce an SI of 3, linear interpolation
[9] = Extract: skin extracted overnight after 6 h

EC3 value (%) ([1]; as printed in main text): 4.4%
EC3 value [1, 8]: 0.17 M
EC3 value (% w/v) [1, 8]: 4.40 % w/v
SI ([1]; test concentration 0.10% w/v): 0.82
[3H]thymidine incorporation (dpm/lymph node) ([1]; test concentration 0.10% w/v): 213 dpm/lymph node
SI ([1]; test concentration 1.0% w/v): 1.41
[3H]thymidine incorporation (dpm/lymph node) ([1]; test concentration 1.0% w/v): 367 dpm/lymph node
SI ([1]; test concentration 5.0% w/v): 3.28
[3H]thymidine incorporation (dpm/lymph node) ([1]; test concentration 5.0% w/v): 852 dpm/lymph node
SI ([1]; test concentration 10% w/v): 12.2
[3H]thymidine incorporation (dpm/lymph node) ([1]; test concentration 10% w/v): 3164 dpm/lymph node
SI ([1]; test concentration 20% w/v): 15.8
[3H]thymidine incorporation (dpm/lymph node) ([1]; test concentration 20% w/v): 4121 dpm/lymph node
Ea (activation energy for the decomposition of the cured epoxy resins) [2]: 66.9 kcal/mol
IDT (initial decomposition temperature) [2]: 362 °C
Rmax (maximum weight loss rate) [2]: –3.24 %/°C
Tmax (temperature at the maximum rate of weight loss) [2]: 380 °C
SMILES: C1OC1CO[C@H]1CO[C@H]2[C@@H]1OC[C@H]2OCC1CO1 (stereo partly drawn) [Compound 1, (3R,3aR,6S,6aR)-3,6-O-Bis(3,4-epoxypropyl)-1,4:3,6-dianhydro-D-glucitol]
sensitizing potency classification ([1]; classified by EC3): moderate (EC3 > 2%, moderate)
reactivity with the model peptide AcPHCKRM [3]: highest reactivity

SMILES: CC(C)(c1ccc(OCC2CO2)cc1)c1ccc(OCC2CO2)cc1 (stereo not shown) [DGEBA, diglycidyl ether of bisphenol A, reference compound]
EC3 [4]: 0.036 M
Ea (activation energy for the decomposition of the cured epoxy resins) [5]: 40.2 kcal/mol
IDT (initial decomposition temperature) [5]: 358 °C
Rmax (maximum weight loss rate) [5]: –2.17 %/°C
Tmax (temperature at the maximum rate of weight loss) [5]: 408 °C
permeation of epidermis ([6]; 6 h experiment, donor 0.1 mg/mL): observed
Average (µM) [6, 9]: 0.206 µM
Average (µg/ml) [6, 9]: 0.0700 µg/mL
Replicate 1 [6, 9]: 0.0658 µg/mL
Replicate 2 (µg/ml) [6, 9]: < LOQ
Replicate 3 [6, 9]: 0.0742 µg/mL
recovery at 6 h, 0.1 mg/mL ([6]; pig, w/w %, sum of receptor compartment after 6 h and overnight skin extraction): 35%
Average (µM) ([6]; receptor fluid, timepoint 0 h): 0 µM
Average (µg/ml) ([6]; receptor fluid, timepoint 0 h): 0 µg/mL
Replicate 1 (µg/ml) ([6]; receptor fluid, timepoint 0 h): < LOQ
Replicate 2 (µg/ml) ([6]; receptor fluid, timepoint 0 h): < LOQ
Replicate 3 (µg/ml) ([6]; receptor fluid, timepoint 0 h): < LOQ
Average (µM) ([6]; receptor fluid, timepoint 1 h): 0 µM
Average (µg/ml) ([6]; receptor fluid, timepoint 1 h): 0 µg/mL
Replicate 1 (µg/ml) ([6]; receptor fluid, timepoint 1 h): < LOQ
Replicate 2 (µg/ml) ([6]; receptor fluid, timepoint 1 h): < LOQ
Replicate 3 (µg/ml) ([6]; receptor fluid, timepoint 1 h): < LOQ
Average (µM) ([6]; receptor fluid, timepoint 2 h): 0.595 µM
Average (µg/ml) ([6]; receptor fluid, timepoint 2 h): 0.203 µg/mL
Replicate 1 ([6]; receptor fluid, timepoint 2 h): 0.315 µg/mL
Replicate 2 ([6]; receptor fluid, timepoint 2 h): 0.184 µg/mL
Replicate 3 ([6]; receptor fluid, timepoint 2 h): 0.108 µg/mL
Average (µM) ([6]; receptor fluid, timepoint 3 h): 0.818 µM
Average (µg/ml) ([6]; receptor fluid, timepoint 3 h): 0.278 µg/mL
Replicate 1 ([6]; receptor fluid, timepoint 3 h): 0.419 µg/mL
Replicate 2 ([6]; receptor fluid, timepoint 3 h): 0.239 µg/mL
Replicate 3 ([6]; receptor fluid, timepoint 3 h): 0.177 µg/mL
Average (µM) ([6]; receptor fluid, timepoint 4 h): 0.868 µM
Average (µg/ml) ([6]; receptor fluid, timepoint 4 h): 0.296 µg/mL
Replicate 1 ([6]; receptor fluid, timepoint 4 h): 0.456 µg/mL
Replicate 2 ([6]; receptor fluid, timepoint 4 h): 0.229 µg/mL
Replicate 3 ([6]; receptor fluid, timepoint 4 h): 0.202 µg/mL
Average (µM) ([6]; receptor fluid, timepoint 5 h): 0.851 µM
Average (µg/ml) ([6]; receptor fluid, timepoint 5 h): 0.290 µg/mL
Replicate 1 ([6]; receptor fluid, timepoint 5 h): 0.436 µg/mL
Replicate 2 ([6]; receptor fluid, timepoint 5 h): 0.237 µg/mL
Replicate 3 ([6]; receptor fluid, timepoint 5 h): 0.196 µg/mL
Average (µM) ([6]; receptor fluid, timepoint 6 h): 0.817 µM
Average (µg/ml) ([6]; receptor fluid, timepoint 6 h): 0.278 µg/mL
Replicate 1 ([6]; receptor fluid, timepoint 6 h): 0.406 µg/mL
Replicate 2 ([6]; receptor fluid, timepoint 6 h): 0.218 µg/mL
Replicate 3 ([6]; receptor fluid, timepoint 6 h): 0.210 µg/mL
amount in receptor fluid after 6 h (%) ([6]; w/w %): 27.8 ± 9.0%
amount on/in skin (%) ([6]; w/w %, overnight skin extraction after 6 h): 7.0 ± 0.4%
recovery (%) ([6]; w/w %, sum of receptor compartment after 6 h and overnight skin extraction): 34.8 ± 9.4%
skin sensitizer classification in guinea pig maximization test [7]: strong
